Source: US12116343B2, “Inhibitors of APOL1 and methods of using same” (Vertex Pharmaceuticals Incorporated, priority 2020, dated 2024)

Target: T1, APOL1 G1 Protein (Homo sapiens, UniProt O14791, I384M/S342G)
T1 sequence (O14791 28-398 S342G/I384M): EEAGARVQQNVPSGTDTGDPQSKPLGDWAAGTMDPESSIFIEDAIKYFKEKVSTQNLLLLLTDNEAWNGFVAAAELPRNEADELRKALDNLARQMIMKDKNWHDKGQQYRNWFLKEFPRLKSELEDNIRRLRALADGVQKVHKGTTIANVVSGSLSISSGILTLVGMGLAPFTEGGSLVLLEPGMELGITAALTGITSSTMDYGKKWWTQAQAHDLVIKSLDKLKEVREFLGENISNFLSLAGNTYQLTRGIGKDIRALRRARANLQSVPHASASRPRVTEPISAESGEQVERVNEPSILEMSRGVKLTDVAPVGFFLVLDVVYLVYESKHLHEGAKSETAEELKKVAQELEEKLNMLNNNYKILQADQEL
Test: Trypanosoma brucei brucei lysis assay using APOL1 recombinant protein (AlamarBlue viability)
Assay type: cell-based
Conditions: Trypanosoma brucei brucei lysis, recombinant APOL1, AlamarBlue; read-out: Trypanosoma Assay (IC50)
Text: Trypanosoma brucei brucei is a blood stream parasite to which human, gorillas and baboon are immune due to the presence of the APOL1 protein in their HDL particles. The protein is uptaken by the parasite via the TbHpHb receptor located in its flagellar pocket and is bonded by the Hpr protein contained in the HDL particles which triggers the receptor endocytosis by the parasite.
Following endocytosis, the formed vesicle containing the HDL particle matures from early to late endosome, and subsequently to lysosome. The concomitant pH change in the lumen of the vesicle triggers the insertion of the APOL1 protein into the membrane of the late endosome/lysosome and hereby triggers lysosomal membrane premeabilisation and as a further downstream event, trypanosome lysis. Trypanosoma brucei brucei is sensitive to lysis by all three APOL1 variants (G0, G1, and G2).
The Trypanosoma brucei brucei lysis assay is a lysis assay of the parasite using recombinant APOL1 protein variant followed by a fluorescent detection method of viability by the addition of AlamarBlue reagent to the assay well, a general metabolic redox indicator (AlamarBlue assay).
Briefly, the AlamarBlue active compound, the resazurin, a blue, water soluble, non-toxic and cell permeable molecule, which can be followed by absorbance, is reduced by various metabolic pathways into resorufin, a red compound which can be followed by either absorbance or fluorescence. The assay allows the calculation of the percent viability (percent of living Trypanosomes remaining in each well) at the end of a lysis relative to the untreated condition by interpolation of fluorescent values (FLU) on a standard curve with a known amount of seeded trypanosome/well.
Trypanosoma brucei brucei (ATCC, Cat. No. PRA-382) • Lister 427 VSG 221 bloodstream form.
Thaw/Expansion Media (ATCC Medium 2834 Modified HMI-9 Medium)
Assay Media (No Phenol Red/No FBS): Make on Day of Use
Hypoxanthine Stock (100×)-9 (10×)
Equipment • El-Clip Tip pipette 12 channel adjustable 2-125 μL, Cat. No. 4672070BT • ThermoFisher MultiDrop 384, Cat. No. 5840300 • Multidrop • Agilent Bravo, Cat. No. G5409A • Bravo • SpectraMax M5
Assay Ready Plates (ARPs) • ARPs comes in two formats: • […] final top concentration with a 2.5 fold dilution down. • […] final top concentration with a 3 fold dilution down. • Both have a 10 point Dose response. • 0.1% DMSO final in the Black Assay Plate. • Compounds are diluted 1000 fold in the Black Assay Plate. • Each plate is designed for 14 compounds in duplicate. • In the final Black Assay Plate:
Trypanosoma brucei brucei Culture
Step 2, Day 4 • Centrifuge at 800×g for 5 minutes at room temperature. • Resuspend in 1 mL media. • Make a 1:25 fold dilution (10 μL/240 μL media). • Count on a hemocytometer (after adding parasites). • Let sit for 1-2 minutes for the parasites to settle. • Count should be approximately 100 viable motile parasites/16 grid or approximately 25×10^6 parasites/flask. • Passage the parasites by adding 1×10^6 parasites/T75 flask in 20 mL media. • Passage the parasites by adding 2.33×10^6 parasites/T175 flask in 46.6 mL media. • For every T75 flask should make enough for approximately 1.5×384 well assay plates. • For every T175 flask should make enough for approximately 3.8×384 well assay plates.
Step 3, Day 6 • Centrifuge at 800×g for 5 minutes. • Resuspend in 3 mL assay media (No phenol red, no FBS) per 75 starting flask. • Resuspend in 7 mL assay media (No phenol red, no FBS) per 175 flask • Make a 1:25 fold dilution. • Count by hemocytometer. • Every T75 flask set up should have approximately 75×10^6 parasites/flask (verify doubling time=8.7 hrs±1 hr). • Every T175 flask set up should have approximately 175×10^6 parasites/flask (verify doubling time=8.7 hrs±1 hr). • Require 46×10^6 parasites per 384 well plate (at 120,000 parasites per well). Protocol B […]

SMILES	IC50 [nM]
CNC(=O)C(C)NC(=O)[C@H]1C[C@H](c2c(-c3ccc(F)cc3)[nH]c3c(F)cc(F)cc32)C1 (mixture of isomers) [Compound 9]	250 to 1000
CC(C)N(CCO)C(=O)[C@H]1C[C@H](c2c(-c3ccc(F)cc3)[nH]c3c(F)cc(F)cc32)C1 [Compound 123]	250 to 1000
CN1CCC(NC(=O)[C@H]2C[C@H](c3c(-c4ccc(F)cc4)[nH]c4c(F)cc(F)cc43)C2)C1=O (stereo partly shown) [Compound 7]	250 to 1000
O=C([C@H]1C[C@H](c2c(-c3ccc(F)cc3)[nH]c3c(F)cc(F)cc32)C1)N1CC(O)C(CO)C1 (stereo partly shown) [Compound 138]	250 to 1000
O=C([C@H]1C[C@H](c2c(-c3ccc(F)cc3)[nH]c3c(F)cc(F)cc32)C1)N1CCO[C@H](CO)C1 [Compound 118]	> 1000
NC(=O)[C@H](CO)NC(=O)[C@H]1C[C@H](c2c(-c3ccc(F)cc3)[nH]c3c(F)cc(F)cc32)C1 [Compound 144]	250 to 1000
O=C1CC[C@@H](NC(=O)[C@H]2C[C@H](c3c(-c4ccc(F)cc4)[nH]c4c(F)cc(F)cc43)C2)C1 [Compound 157]	> 1000
C[C@@H](O)[C@@H](CO)NC(=O)[C@H]1C[C@H](c2c(-c3ccc(F)cc3)[nH]c3c(F)cc(F)cc32)C1 [Compound 160]	< 250
CN(C)C[C@@H]1CCN(C(=O)[C@H]2C[C@H](c3c(-c4ccc(F)cc4)[nH]c4c(F)cc(F)cc43)C2)C[C@H]1O [Compound 110]	250 to 1000
O=C([C@H]1C[C@H](c2c(-c3ccc(F)cc3)[nH]c3c(F)cc(F)cc32)C1)N1CCCC[C@@H]1CCO [Compound 156]	> 1000
O=C1C[C@H](NC(=O)[C@H]2C[C@H](c3c(-c4ccc(F)cc4)[nH]c4c(F)cc(F)cc43)C2)C(=O)N1 [Compound 165]	< 250
O=C([C@H]1C[C@H](c2c(-c3ccc(F)cc3)[nH]c3c(F)cc(F)cc32)C1)N1C2CCC(C2)C1CO (stereo partly shown) [Compound 97]	> 1000
CC1(C)CN(C(=O)[C@H]2C[C@H](c3c(-c4ccc(F)cc4)[nH]c4c(F)cc(F)cc43)C2)CCN1C(=O)[C@H]1C[C@@](C)(O)C1 [Compound 130]	> 1000
O=C([C@H]1C[C@H](c2c(-c3ccc(F)cc3)[nH]c3c(F)cc(F)cc32)C1)N1C[C@H]2C[C@@]2(CO)C1 [Compound 98]	> 1000
O=C(NCCOCCO)[C@H]1C[C@H](c2c(-c3ccc(F)cc3)[nH]c3c(F)cc(F)cc32)C1 [Compound 125]	< 250
O=C1NCC[C@@H]1NC(=O)[C@H]1C[C@H](c2c(-c3ccc(F)cc3)[nH]c3c(F)cc(F)cc32)C1 [Compound 162]	250 to 1000
O=C([C@H]1C[C@H](c2c(-c3ccc(F)cc3)[nH]c3c(F)cc(F)cc32)C1)N1CCOC(CO)C1 (stereo partly shown) [Compound 148]	> 1000
CO[C@H]1CCN(C(=O)[C@H]2C[C@H](c3c(-c4ccc(F)cc4)[nH]c4c(F)cc(F)cc43)C2)C1 [Compound 95]	> 1000
O=C([C@H]1C[C@H](c2c(-c3ccc(F)cc3)[nH]c3c(F)cc(F)cc32)C1)N1CCCCC1CO (stereo partly shown) [Compound 145]	250 to 1000
O=C([C@H]1C[C@H](c2c(-c3ccc(F)cc3)[nH]c3c(F)cc(F)cc32)C1)N1CCOC(O)C1 (stereo partly shown) [Compound 115]	< 250
O=C([C@H]1C[C@H](c2c(-c3ccc(F)cc3)[nH]c3c(F)cc(F)cc32)C1)N1CCCC(O)C1 (stereo partly shown) [Compound 150]	250 to 1000
CCN(C(=O)[C@H]1C[C@H](c2c(-c3ccc(F)cc3)[nH]c3c(F)cc(F)cc32)C1)C(C)CO (mixture of isomers) [Compound 111]	250 to 1000
O=C([C@H]1C[C@H](c2c(-c3ccc(F)cc3)[nH]c3c(F)cc(F)cc32)C1)N1CC(O)C(N2CCOCC2)C1 (stereo partly shown) [Compound 106]	> 1000
CCN(CCO)C(=O)[C@H]1C[C@H](c2c(-c3ccc(F)cc3)[nH]c3c(F)cc(F)cc32)C1 [Compound 124]	250 to 1000
CC1(C)CN(C(=O)[C@H]2C[C@H](c3c(-c4ccc(F)cc4)[nH]c4c(F)cc(F)cc43)C2)CC1O (stereo partly shown) [Compound 102]	> 1000
